Assay results taken from US11578100B2, “Cyclic peptides, cyclic peptide conjugates and methods of use thereof” (Florida Atlantic University Board of Trustees, priority 2018, dated 2023).
Where a SMILES comes first, the peptide text is derived from it. Bridges are numbered along the chain shown (N, C = ends). Where no end group is shown, it is not given here. [ ]: non-standard residue; d: D form. Trp(5-OH) = N[C@@H](Cc1c[nH]c2ccc(O)cc12)C(=O)O; Tic = O=C(O)[C@@H]1Cc2ccccc2CN1

How the values were obtained:
mice [1] = experiment: 55° C. warm water tail-withdrawal test; format: in vivo, mouse; settings: i.n. administration
mice [2] = experiment: conditioned place preference / aversion; settings: mouse, in vivo
[3] = 30 min after intranasal delivery
Excerpt: Anatomical and physiological studies identified the midbrain periaqueductal gray (PAG) and its descending projections to the rostral ventromedial medulla (RVM) and spinal cord dorsal horn, as a primary anatomical pathway mediating opioid-based analgesia.

mice [4] = experiment: rotarod test of motor coordination; settings: peptides i.n.; U50,488 i.p.
mice [5] = experiment: observation of adverse effects after i.n. administration
[6] = stability in 100% mouse brain homogenate; format: in vitro ADME; settings: 37° C., RP-HPLC and MALDI TOF MS
Protocol: Peptides Stability Under Physiologically Relevant Conditions and Mode of Action Stability of DADLE-OL in 100% human cerebrospinal fluid and 100% mouse brain homogenate at 37° C. was determined. The disappearance of the intact peptides and formation of proteolytic products was monitored by RP-HPLC and MALDI TOF mass spectrometry. […] Once diffused into the brain, DOR active sequence is released due to proteolytic hydrolysis of DADLE-OL. Fragment 1 was synthesized, and activities of the parent DADLE-OL and fragment 1 were tested in the cAMP inhibition assay (cAMP AlphaScreen™ Assay, Perkin Elmer).

μ opioid receptor (MOR) = target: T1, μ opioid receptor (MOR) (Homo sapiens, UniProt P35372); experiment: opioid receptor protein binding radioassay, MOR
T1 construct: expressed in transfected cells; host or cells: CHO cells
T1 sequence (P35372 whole entry): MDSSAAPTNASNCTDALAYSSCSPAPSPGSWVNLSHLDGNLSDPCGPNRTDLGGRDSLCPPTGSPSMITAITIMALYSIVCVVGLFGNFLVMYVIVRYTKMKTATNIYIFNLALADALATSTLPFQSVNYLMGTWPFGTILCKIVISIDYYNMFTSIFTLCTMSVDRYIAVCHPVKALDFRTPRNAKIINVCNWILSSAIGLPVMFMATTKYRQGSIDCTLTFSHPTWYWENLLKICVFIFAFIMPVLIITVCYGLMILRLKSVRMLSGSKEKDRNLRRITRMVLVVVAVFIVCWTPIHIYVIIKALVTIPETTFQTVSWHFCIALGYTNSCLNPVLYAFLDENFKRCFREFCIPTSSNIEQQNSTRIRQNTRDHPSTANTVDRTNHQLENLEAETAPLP

κ opioid receptor (KOR) = target: T2, κ opioid receptor (KOR) (Homo sapiens, UniProt P41145); experiment: opioid receptor protein binding radioassay, KOR
T2 construct: expressed in transfected cells; host or cells: CHO cells
T2 sequence (P41145 whole entry): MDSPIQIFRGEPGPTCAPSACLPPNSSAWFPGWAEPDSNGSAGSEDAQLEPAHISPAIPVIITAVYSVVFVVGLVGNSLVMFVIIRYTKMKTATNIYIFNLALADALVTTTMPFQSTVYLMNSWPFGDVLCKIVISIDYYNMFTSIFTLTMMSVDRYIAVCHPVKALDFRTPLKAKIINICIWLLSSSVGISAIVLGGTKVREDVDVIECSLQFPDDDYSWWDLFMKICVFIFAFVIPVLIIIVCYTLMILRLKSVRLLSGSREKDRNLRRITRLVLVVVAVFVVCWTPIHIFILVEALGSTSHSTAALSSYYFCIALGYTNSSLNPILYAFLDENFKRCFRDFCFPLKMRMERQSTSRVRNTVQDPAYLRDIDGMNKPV

δ opioid receptor (DOR) = target: T3, δ opioid receptor (DOR) (Homo sapiens, UniProt P41143); experiment: opioid receptor protein binding radioassay, DOR
T3 construct: expressed in transfected cells; host or cells: CHO cells
T3 sequence (P41143 whole entry): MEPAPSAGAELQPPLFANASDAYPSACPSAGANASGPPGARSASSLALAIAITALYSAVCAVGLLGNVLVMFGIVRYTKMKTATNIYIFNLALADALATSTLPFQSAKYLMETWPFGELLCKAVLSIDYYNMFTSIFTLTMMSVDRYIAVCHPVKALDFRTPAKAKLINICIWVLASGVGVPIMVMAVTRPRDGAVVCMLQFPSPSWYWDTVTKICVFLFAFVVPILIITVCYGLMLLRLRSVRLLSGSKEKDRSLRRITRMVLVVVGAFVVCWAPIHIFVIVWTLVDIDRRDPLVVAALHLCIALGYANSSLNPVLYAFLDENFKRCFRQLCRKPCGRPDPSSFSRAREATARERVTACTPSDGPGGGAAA

[7] = peptide level in mouse brain after i.n. or i.p. administration (LC-MS/MS)
DOR = target: T4, DOR (Mus musculus, UniProt P32300); experiment: antagonism of i.c.v. SNC-80 after i.n. pretreatment; format: in vivo; settings: SNC-80 i.c.v.
T4 construct: from tissue; host or cells: living mouse (CNS); SNC-80 i.c.v. after i.n. TIPP-OL
T4 sequence (P32300 whole entry): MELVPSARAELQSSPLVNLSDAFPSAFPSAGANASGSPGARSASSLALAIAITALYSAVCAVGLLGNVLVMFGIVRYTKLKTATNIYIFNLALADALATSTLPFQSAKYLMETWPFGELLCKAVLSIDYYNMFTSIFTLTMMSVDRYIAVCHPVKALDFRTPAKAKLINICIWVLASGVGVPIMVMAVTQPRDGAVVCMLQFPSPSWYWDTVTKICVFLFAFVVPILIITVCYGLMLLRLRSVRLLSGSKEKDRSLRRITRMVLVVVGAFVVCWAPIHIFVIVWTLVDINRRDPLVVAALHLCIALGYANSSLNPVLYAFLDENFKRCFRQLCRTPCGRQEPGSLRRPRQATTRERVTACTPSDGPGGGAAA

Y^1P^2W^3F^4K^5-cyclo[C^6F^7R^8Y^9Tic^10F^11F^12V^13L^14A^15C^16]T^17 (YPWFKCFRY[Tic]FFVLACT; disulfide 6-16 (inferred)) [TIPP-EM1-OL]
antinociception in tail-withdrawal test (mice [1]): exhibits antinociceptive effects

CC(C)C[C@@H]1NC(=O)[C@H](CCCCN)NC(=O)[C@@H]2CCCN2C(=O)[C@H](Cc2c[nH]c3ccccc23)NC(=O)[C@H](Cc2ccccc2)NC(=O)CNC(=O)[C@H](CCCNC(=N)N)NC(=O)[C@H](Cc2ccccc2)NC(=O)[C@@H](NC(=O)[C@H](CCCCN)NC(=O)[C@@H]2CCCN2C(=O)[C@H](CO)NC(=O)[C@H](C)NC(=O)[C@@H](N)Cc2c[nH]c3ccc(O)cc23)CSSC[C@@H](C(=O)N[C@H](C(N)=O)[C@@H](C)O)NC(=O)[C@H](C)NC1=O [OLKOR-L1-5HTrp, 5-HTrp^1-A^2S^3P^4K^5-cyclo[C^6F^7R^8G^9F^10W^11P^12K^13L^14A^15C^16]T^17] (H-[Trp(5-OH)]ASPKCFRGFWPKLACT-NH2; disulfide 6-16)
conditioned place aversion (CPA) (mice [2]): produced CPA
conditioned place preference (reward) (mice [2]): do not produce reward
5-HTrp accumulation in the midbrain [3]: significant increase in 5-HTrp accumulation in the midbrain

CC(C)C[C@@H]1NC(=O)[C@H](CCCCN)NC(=O)[C@@H]2CCCN2C(=O)[C@H](Cc2c[nH]c3ccccc23)NC(=O)[C@H](Cc2ccccc2)NC(=O)CNC(=O)[C@H](CCCNC(=N)N)NC(=O)[C@H](Cc2ccccc2)NC(=O)[C@@H](NC(=O)[C@H](CCCCN)NC(=O)[C@@H]2CCCN2C(=O)[C@H](CO)NC(=O)[C@H](C)NC(=O)[C@@H](N)Cc2ccc(O)cc2)CSSC[C@@H](C(=O)N[C@H](C(N)=O)[C@@H](C)O)NC(=O)[C@H](C)NC1=O [OLKOR-L1, Y^1A^2S^3P^4K^5-cyclo[C^6F^7R^8G^9F^10W^11P^12K^13L^14A^15C^16]T^17] (H-YASPKCFRGFWPKLACT-NH2; disulfide 6-16)
motor coordination in rotarod test (mice [4]): no impairment in motor coordination in mice was observed
adverse effects (mice [5]): no other adverse effects were observed

CC(C)C[C@@H]1NC(=O)[C@H](C(C)C)NC(=O)CNC(=O)[C@H](CC(N)=O)NC(=O)[C@@H]2CCCN2C(=O)[C@H](Cc2ccc(O)cc2)NC(=O)[C@H](CCCNC(=N)N)NC(=O)[C@H](Cc2ccccc2)NC(=O)[C@@H](NC(=O)[C@H](CCCCN)NC(=O)[C@@H]2CCCN2C(=O)[C@H](CO)NC(=O)[C@H](C)NC(=O)[C@@H](N)Cc2ccc(O)cc2)CSSC[C@@H](C(=O)N[C@H](C(N)=O)[C@@H](C)O)NC(=O)[C@H](C)NC1=O [OL, Y^1A^2S^3P^4K^5-cyclo[C^6F^7R^8Y^9P^10N^11G^12V^13L^14A^15C^16]T^17, reference compound] (H-YASPKCFRYPNGVLACT-NH2; disulfide 6-16; N-terminus and C-terminus assumed)
adverse effects (mice [5]): no adverse effects were observed
stability in 100% mouse brain homogenate [6]: proteolytic cleavage of the N-terminal Tyr^1 and Ala^2
Kd opioid receptor μ (μ opioid receptor (MOR)): n.o.
Kd opioid receptor K (κ opioid receptor (KOR)): n.o.
Kd opioid receptor δ (δ opioid receptor (DOR)): n.o.
detection in mouse brain after i.n. administration ([7]; 30 minutes after i.n. (30 μg, 6 μL/nostril)): can be detected in the mouse brain
time to elimination from the brain ([7]; after i.n. administration): about 240 minutes

CC(C)C[C@@H]1NC(=O)[C@H](CC(N)=O)NC(=O)[C@H](C(C)C)NC(=O)[C@@H]2CCCN2C(=O)[C@H](Cc2ccccc2)NC(=O)[C@H](Cc2c[nH]cn2)NC(=O)[C@H](CCCNC(=N)N)NC(=O)[C@H](Cc2ccccc2)NC(=O)[C@@H](NC(=O)[C@H](CCCCN)NC(=O)[C@@H]2CCCN2C(=O)[C@H](CO)NC(=O)[C@H](C)NC(=O)[C@@H](N)Cc2ccc(O)cc2)CSSC[C@@H](C(=O)N[C@H](C(N)=O)[C@@H](C)O)NC(=O)[C@H](C)NC1=O [OLMOR-L1, Y^1A^2S^3P^4K^5-cyclo[C^6F^7R^8H^9F^10P^11V^12N^13L^14A^15C^16]T^17] (H-YASPKCFRHFPVNLACT-NH2; disulfide 6-16)
motor coordination in rotarod test (mice [4]): did not affect motor coordination and balance
conditioned place aversion (CPA) (mice [2]): did not induce significant conditioned place preference or aversion
conditioned place preference (reward) (mice [2]): did not induce significant conditioned place preference or aversion

Y^1A^2S^3P^4K^5-cyclo[C^6F^7R^8Y^9Tic^10F^11F^12V^13L^14A^15C^16]T^17 (YASPKCFRY[Tic]FFVLACT; disulfide 6-16 (inferred)) [TIPP-OL]
antagonism of the effect of SNC-80 (DOR): fully antagonizes the effect of a potent DOR agonist SNC-80

CC(C)C[C@@H](NC(=O)[C@H](Cc1ccccc1)NC(=O)CNC(=O)[C@@H](C)NC(=O)[C@@H](N)Cc1ccc(O)cc1)C(=O)O [DADLE, [D-Ala^2, D-Leu^5] enkephalin, reference compound]
antinociception in tail-withdrawal test (mice [1]): did not themselves produce antinociception
